Experimental data published in the NIST ThermoML archive (doi:10.1016/j.tca.2009.03.014).

How the values were obtained:
[1] = 101.33 kPa, Liquid; for mass density: Pycnometric method; for speed of sound: Linear variable-path acoustic interferometer
[2] = xn = mol fraction of the nth substance listed; settings: 308.15 K, 101 kPa, Liquid; for excess molar volume: Direct dilatometry; for speed of sound: Linear variable-path acoustic interferometer
[3] = excess molar enthalpy (molar enthalpy of mixing); xn = mol fraction of the nth substance listed; settings: 308.15 K, 101 kPa, Liquid, Calvet calorimetry

O=C1CCCN1 [2-pyrrolidinone]
[1]
Settings | mass density [kg/m3] | speed of sound [m/s]
298.15 K | 1107.26 | –
308.15 K | – | 1603

O=C1CCCN1 [2-pyrrolidinone] + CC(C)O
Settings | excess molar enthalpy [kcal/mol] | excess molar volume [m3/mol] | speed of sound [m/s]
[2], x1 = 0.0825 | – | -9.8e-08 | –
[2], x1 = 0.0835 | – | – | 1144.9
[2], x1 = 0.1311 | – | -1.54e-07 | –
[2], x1 = 0.1329 | – | – | 1166.9
[2], x1 = 0.1719 | – | -1.97e-07 | –
[2], x1 = 0.1976 | – | – | 1196.8
[2], x1 = 0.2365 | – | -2.59e-07 | –
[2], x1 = 0.2597 | – | – | 1225.6
[2], x1 = 0.2949 | – | -3.07e-07 | –
[2], x1 = 0.3244 | – | – | 1256
[2], x1 = 0.348 | – | -3.36e-07 | –
[2], x1 = 0.3815 | – | – | 1283.5
[2], x1 = 0.4267 | – | -3.69e-07 | –
[2], x1 = 0.4394 | – | – | 1311.6
[2], x1 = 0.4756 | – | -3.81e-07 | –
[2], x1 = 0.5031 | – | – | 1343.3
[2], x1 = 0.5682 | – | – | 1376.4
[2], x1 = 0.5684 | – | -3.74e-07 | –
[2], x1 = 0.6159 | – | – | 1401.1
[2], x1 = 0.6315 | – | -3.51e-07 | –
[2], x1 = 0.6879 | – | – | 1439.2
[2], x1 = 0.6921 | – | -3.17e-07 | –
[2], x1 = 0.7193 | – | -2.98e-07 | –
[2], x1 = 0.765 | – | – | 1479.9
[2], x1 = 0.8048 | – | -2.29e-07 | –
[2], x1 = 0.8223 | – | – | 1511.6
[2], x1 = 0.8941 | – | -1.33e-07 | –
[2], x1 = 0.9042 | – | – | 1553.8
[3], x1 = 0.0841 | 0.11 | – | –
[3], x1 = 0.1776 | 0.187 | – | –
[3], x1 = 0.2315 | 0.21 | – | –
[3], x1 = 0.334 | 0.226 | – | –
[3], x1 = 0.3758 | 0.227 | – | –
[3], x1 = 0.4453 | 0.218 | – | –
[3], x1 = 0.501 | 0.206 | – | –
[3], x1 = 0.6009 | 0.175 | – | –
[3], x1 = 0.6811 | 0.144 | – | –
[3], x1 = 0.7151 | 0.129 | – | –
[3], x1 = 0.7626 | 0.111 | – | –
[3], x1 = 0.8338 | 0.0822 | – | –
[3], x1 = 0.8794 | 0.0634 | – | –
[3], x1 = 0.9223 | 0.0429 | – | –

O=C1CCCN1 [2-pyrrolidinone] + CCCCO
Settings | excess molar enthalpy [kcal/mol] | excess molar volume [m3/mol] | speed of sound [m/s]
[2], x1 = 0.0632 | – | – | 1237.1
[2], x1 = 0.0883 | – | -6.5e-08 | –
[2], x1 = 0.1021 | – | -7.6e-08 | –
[2], x1 = 0.1176 | – | – | 1245.9
[2], x1 = 0.186 | – | – | 1262.9
[2], x1 = 0.2306 | – | – | 1276.6
[2], x1 = 0.2423 | – | -1.47e-07 | –
[2], x1 = 0.3298 | – | -1.72e-07 | –
[2], x1 = 0.3394 | – | – | 1315.9
[2], x1 = 0.3954 | – | – | 1338.2
[2], x1 = 0.4003 | – | -1.87e-07 | –
[2], x1 = 0.4442 | – | – | 1359
[2], x1 = 0.4536 | – | -1.9e-07 | –
[2], x1 = 0.4825 | – | – | 1374.9
[2], x1 = 0.497 | – | -1.92e-07 | –
[2], x1 = 0.5269 | – | -1.88e-07 | –
[2], x1 = 0.5453 | – | – | 1402
[2], x1 = 0.5702 | – | – | 1412.4
[2], x1 = 0.5855 | – | -1.83e-07 | –
[2], x1 = 0.6229 | – | -1.76e-07 | –
[2], x1 = 0.6427 | – | – | 1441.1
[2], x1 = 0.7154 | – | -1.53e-07 | –
[2], x1 = 0.7367 | – | – | 1478
[2], x1 = 0.7617 | – | -1.36e-07 | –
[2], x1 = 0.8275 | – | – | 1512.6
[2], x1 = 0.8382 | – | -1.02e-07 | –
[2], x1 = 0.8826 | – | -7.7e-08 | –
[2], x1 = 0.9152 | – | – | 1551
[3], x1 = 0.0824 | 0.0833 | – | –
[3], x1 = 0.1933 | 0.155 | – | –
[3], x1 = 0.2472 | 0.174 | – | –
[3], x1 = 0.3241 | 0.193 | – | –
[3], x1 = 0.3748 | 0.195 | – | –
[3], x1 = 0.4183 | 0.195 | – | –
[3], x1 = 0.4734 | 0.191 | – | –
[3], x1 = 0.5451 | 0.178 | – | –
[3], x1 = 0.5725 | 0.17 | – | –
[3], x1 = 0.6427 | 0.151 | – | –
[3], x1 = 0.7058 | 0.127 | – | –
[3], x1 = 0.7499 | 0.112 | – | –
[3], x1 = 0.8571 | 0.0658 | – | –
[3], x1 = 0.9247 | 0.0365 | – | –

O=C1CCCN1 [2-pyrrolidinone] + CCCO
Settings | excess molar enthalpy [kcal/mol] | excess molar volume [m3/mol] | speed of sound [m/s]
[2], x1 = 0.0349 | – | -2.3e-08 | –
[2], x1 = 0.0973 | – | -6.7e-08 | –
[2], x1 = 0.0982 | – | – | 1219.3
[2], x1 = 0.1436 | – | -1e-07 | –
[2], x1 = 0.158 | – | – | 1240.8
[2], x1 = 0.1968 | – | – | 1255
[2], x1 = 0.2052 | – | -1.38e-07 | –
[2], x1 = 0.2654 | – | -1.75e-07 | –
[2], x1 = 0.2958 | – | – | 1294.4
[2], x1 = 0.3299 | – | -2.08e-07 | –
[2], x1 = 0.3309 | – | – | 1308.9
[2], x1 = 0.3881 | – | -2.27e-07 | –
[2], x1 = 0.3952 | – | – | 1336.5
[2], x1 = 0.4485 | – | – | 1359.7
[2], x1 = 0.4495 | – | -2.44e-07 | –
[2], x1 = 0.4949 | – | – | 1380.7
[2], x1 = 0.521 | – | – | 1391.8
[2], x1 = 0.5246 | – | -2.48e-07 | –
[2], x1 = 0.5749 | – | -2.46e-07 | –
[2], x1 = 0.5951 | – | – | 1425.6
[2], x1 = 0.6516 | – | -2.27e-07 | –
[2], x1 = 0.6957 | – | – | 1470.7
[2], x1 = 0.7314 | – | – | 1485.7
[2], x1 = 0.7453 | – | -1.85e-07 | –
[2], x1 = 0.7968 | – | – | 1515.4
[2], x1 = 0.8357 | – | -1.29e-07 | –
[2], x1 = 0.8982 | – | – | 1558.4
[2], x1 = 0.9206 | – | -6.5e-08 | –
[3], x1 = 0.0592 | 0.0594 | – | –
[3], x1 = 0.1085 | 0.0933 | – | –
[3], x1 = 0.1966 | 0.135 | – | –
[3], x1 = 0.2273 | 0.145 | – | –
[3], x1 = 0.3287 | 0.161 | – | –
[3], x1 = 0.3782 | 0.159 | – | –
[3], x1 = 0.4394 | 0.155 | – | –
[3], x1 = 0.495 | 0.146 | – | –
[3], x1 = 0.5219 | 0.139 | – | –
[3], x1 = 0.5951 | 0.125 | – | –
[3], x1 = 0.6622 | 0.108 | – | –
[3], x1 = 0.7539 | 0.0808 | – | –
[3], x1 = 0.8065 | 0.068 | – | –
[3], x1 = 0.8946 | 0.0396 | – | –

O=C1CCCN1 [2-pyrrolidinone] + CCO
Settings | excess molar enthalpy [kcal/mol] | excess molar volume [m3/mol] | speed of sound [m/s]
[2], x1 = 0.0767 | – | -9.2e-08 | –
[2], x1 = 0.0784 | – | – | 1172.9
[2], x1 = 0.1393 | – | -1.72e-07 | –
[2], x1 = 0.1607 | – | – | 1230.8
[2], x1 = 0.1763 | – | -2.15e-07 | –
[2], x1 = 0.1963 | – | – | 1252.8
[2], x1 = 0.2471 | – | – | 1282.9
[2], x1 = 0.2676 | – | -3.07e-07 | –
[2], x1 = 0.338 | – | – | 1327.2
[2], x1 = 0.3493 | – | -3.68e-07 | –
[2], x1 = 0.3876 | – | – | 1349.4
[2], x1 = 0.4016 | – | -3.94e-07 | –
[2], x1 = 0.4337 | – | – | 1366.5
[2], x1 = 0.4713 | – | – | 1381
[2], x1 = 0.4865 | – | -4.16e-07 | –
[2], x1 = 0.5347 | – | – | 1404.3
[2], x1 = 0.5479 | – | -4.13e-07 | –
[2], x1 = 0.5985 | – | – | 1427.8
[2], x1 = 0.6015 | – | -3.94e-07 | –
[2], x1 = 0.6412 | – | – | 1444.8
[2], x1 = 0.6573 | – | -3.66e-07 | –
[2], x1 = 0.7145 | – | -3.21e-07 | –
[2], x1 = 0.7539 | – | – | 1492.3
[2], x1 = 0.7982 | – | -2.4e-07 | –
[2], x1 = 0.8064 | – | – | 1518.1
[2], x1 = 0.856 | – | -1.75e-07 | –
[2], x1 = 0.8887 | – | – | 1559.4
[2], x1 = 0.92 | – | -9.7e-08 | –
[3], x1 = 0.0647 | 0.0643 | – | –
[3], x1 = 0.1158 | 0.102 | – | –
[3], x1 = 0.2075 | 0.14 | – | –
[3], x1 = 0.2768 | 0.149 | – | –
[3], x1 = 0.338 | 0.152 | – | –
[3], x1 = 0.38 | 0.148 | – | –
[3], x1 = 0.4337 | 0.14 | – | –
[3], x1 = 0.5337 | 0.118 | – | –
[3], x1 = 0.605 | 0.104 | – | –
[3], x1 = 0.6856 | 0.0834 | – | –
[3], x1 = 0.7539 | 0.0649 | – | –
[3], x1 = 0.7929 | 0.0552 | – | –
[3], x1 = 0.8436 | 0.0455 | – | –
[3], x1 = 0.8904 | 0.0312 | – | –

CCCCO [butan-1-ol]
[1]
Settings | mass density [kg/m3] | speed of sound [m/s]
298.15 K | 809.5 | –
308.15 K | – | 1232.2

CCO [ethanol]
[1]
Settings | mass density [kg/m3] | speed of sound [m/s]
298.15 K | 785.08 | –
308.15 K | – | 1112

CCCO [propan-1-ol]
[1]
Settings | mass density [kg/m3] | speed of sound [m/s]
298.15 K | 799.28 | –
308.15 K | – | 1188.2

CC(C)O [propan-2-ol]
[1], 298.15 K
Settings | mass density [kg/m3] | speed of sound [m/s]
– | 780.98 | 1135.9
